# Columns and labels:
# [1] = biological target: T1, IRAK1 (Homo sapiens, UniProt P51617); assay: IRAK1 enzymatic assay (ADP-Glo luminescence); type: biochemical; settings: purified human recombinant His-TEV-IRAK1 (194-712)
# T1 construct: His-TEV-IRAK1 (194-712); His (N); TEV cleavage site (N)
# Method: IRAK1 is a human purified recombinant enzyme (His-TEV-IRAK1 (194-712))
# In this assay, IRAK1 hydrolyses ATP and autophosphorylates. Measurement of IRAK-1 inhibition is performed in 384-well format based on luminescence assay (ADP-Glo™ Kinase Assay from Promega). Purified human recombinant IRAK1 (0.3 μg/ml) and serial diluted compounds in DMSO (range of concentration from 10 μM to 0.5 nM) or controls (1% DMSO) are incubated for 15 minutes at RT in assay buffer containing 50 mM Hepes pH 7.0, Fatty acid-free BSA 0.1%, Dithiothreitol (DTT) 2 mM, MgCl2 10 mM, EGTA 0.5 mM, Triton X-100 0.01%. The kinase reaction is then initiated by the addition of ATP […] After 2 hours of incubation at RT, the reaction is stopped and the unconsumed ATP depleted by the addition of ADP-Glo™ Reagent according to supplier instructions. After 40 minutes of incubation at RT, the Kinase Detection Reagent is then added to the assay plate according to supplier instructions. After 20 minutes of incubation at RT, the luminescence signal is measured with a luminometer (PerkinElmer Envision or equivalent reader).
# [2] = biological target: T2, IRAK4 (Homo sapiens, UniProt Q9NWZ3); assay: IRAK4 enzymatic assay (ADP-Glo luminescence); type: biochemical; settings: purified human recombinant His-TEV-IRAK4 (1-460), ATP 2 μM
# T2 construct: His-TEV-IRAK4 (1-460); His (N); TEV cleavage site (N)
# T2 sequence (Q9NWZ3 1-460): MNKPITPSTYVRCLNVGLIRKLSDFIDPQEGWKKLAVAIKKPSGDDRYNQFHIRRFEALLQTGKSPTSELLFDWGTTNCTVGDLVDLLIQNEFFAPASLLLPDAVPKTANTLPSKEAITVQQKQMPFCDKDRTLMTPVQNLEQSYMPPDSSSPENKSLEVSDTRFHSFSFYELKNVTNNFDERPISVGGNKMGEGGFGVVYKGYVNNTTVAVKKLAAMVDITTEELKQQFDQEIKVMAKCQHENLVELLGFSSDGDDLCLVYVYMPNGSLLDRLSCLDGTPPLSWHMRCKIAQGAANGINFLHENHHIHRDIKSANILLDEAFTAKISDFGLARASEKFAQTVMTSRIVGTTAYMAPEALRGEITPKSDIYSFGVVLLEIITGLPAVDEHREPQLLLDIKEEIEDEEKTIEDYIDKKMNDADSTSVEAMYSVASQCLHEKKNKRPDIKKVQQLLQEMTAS
# Method: IRAK4 is a human purified recombinant enzyme (His-TEV-IRAK4 (1-460)).
# In this assay, IRAK4 hydrolyses ATP, autophosphorylates and phosphorylates a Serine/Threonine generic peptidic substrate (STK: 61ST1BLC from CisBio International). Measurement of IRAK-4 inhibition is performed in 384-well format based on a luminescence assay (ADP-Glo™ Kinase Assay from Promega). Purified human recombinant IRAK4 (0.3 μg/ml) and serial diluted compounds in DMSO (range of concentration from 10 μM to 0.5 nM) or controls (1% DMSO) are incubated for 15 minutes at RT in assay buffer containing 50 mM Hepes pH 7.0, Fatty acid-free BSA 0.1%, Dithiothreitol (DTT) 2 mM, MgCl2 10 mM, EGTA 0.5 mM, Triton X-100 0.01%, MnCl2 5 mM. The kinase reaction is then initiated by the addition of ATP (2 μM) and the peptidic substrate STK1-biotin peptide (300 nM). After 2 hours of incubation at RT, the reaction is stopped and the unconsumed ATP depleted by the addition of ADP-Glo™ Reagent according to supplier instructions. After 40 minutes of incubation at RT, the Kinase Detection Reagent is then added to the assay plate according to supplier instructions. After 20 minutes of incubation at RT, the luminescence signal is measured with a plate-reading luminometer (PerkinElmer Envision or equivalent reader).
# T1 sequence (P51617 194-712): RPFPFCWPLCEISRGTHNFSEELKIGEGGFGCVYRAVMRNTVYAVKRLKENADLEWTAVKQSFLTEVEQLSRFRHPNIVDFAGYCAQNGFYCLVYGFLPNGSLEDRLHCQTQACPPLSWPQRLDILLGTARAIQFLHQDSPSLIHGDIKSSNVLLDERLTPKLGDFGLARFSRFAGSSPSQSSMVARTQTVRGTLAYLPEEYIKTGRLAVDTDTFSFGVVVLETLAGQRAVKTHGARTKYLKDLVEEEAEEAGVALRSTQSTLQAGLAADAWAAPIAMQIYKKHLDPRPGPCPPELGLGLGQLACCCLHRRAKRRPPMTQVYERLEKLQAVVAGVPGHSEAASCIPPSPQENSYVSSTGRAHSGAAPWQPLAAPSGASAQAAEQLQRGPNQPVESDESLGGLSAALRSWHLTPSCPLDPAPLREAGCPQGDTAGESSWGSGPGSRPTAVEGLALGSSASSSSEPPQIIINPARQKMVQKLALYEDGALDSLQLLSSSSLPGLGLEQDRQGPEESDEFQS
IC50 [1] [nM],IC50 [2] [nM],SMILES
100 to 1000,≤ 100,"C[C@H](CCO)n1/c(=N/C(=O)c2cccc(C(F)(F)F)c2)[nH]c2cc(N3CCOCC3=O)ccc21 [Compound 15, (R,E)-N-(1-(4-hydroxybutan-2-yl)-5-(3-oxomorpholino)-1H-benzo[d]imidazol-2(3H)-ylidene)-3-(trifluoromethyl)benzamide]"
100 to 1000,≤ 100,"O=C(/N=c1\[nH]c2cc(N3CCOCC3=O)ccc2n1CCCCO)c1cccc(C(F)(F)F)c1 [Compound 17, (E)-N-(1-(4-hydroxybutyl)-5-(3-oxomorpholino)-1H-benzo[d]imidazol-2(3H)-ylidene)-3-(trifluoromethyl)benzamide]"
> 1000,100 to 1000,"Cn1cnc2ccc(C(=O)/N=c3\[nH]c4cc(N5CCOCC5=O)ccc4n3CCCO)cc21 [Compound 20, (E)-N-(1-(3-hydroxypropyl)-5-(3-oxomorpholino)-1H-benzo[d]imidazol-2(3H)-ylidene)-1-methyl-1H-benzo[d]imidazole-6-carboxamide]"
> 1000,> 1000,"Cn1cnc2cc(C(=O)/N=c3\[nH]c4cc(N5CCOCC5=O)ccc4n3CCCO)ccc21 [Compound 22, (E)-N-(1-(3-hydroxypropyl)-5-(3-oxomorpholino)-1H-benzo[d]imidazol-2(3H)-ylidene)-1-methyl-1H-benzo[d]imidazole-5-carboxamide]"
100 to 1000,≤ 100,"O=C(/N=c1\[nH]c2cc(N3CCOCC3=O)ccc2n1CC1(CO)CC1)c1cc(F)cc(C(F)(F)F)c1 [Compound 25, (E)-3-fluoro-N-(1-((1-(hydroxymethyl)cyclopropyl)methyl)-5-(3-oxomorpholino)-1H-benzo[d]imidazol-2(3H)-ylidene)-5-(trifluoromethyl)benzamide]"
≤ 100,≤ 100,"O=C(/N=c1\[nH]c2cc(N3CCOCC3=O)ccc2n1CCCCO)c1cccc(C(F)F)c1 [Compound 26, (E)-3-(difluoromethyl)-N-(1-(4-hydroxybutyl)-5-(3-oxomorpholino)-1H-benzo[d]imidazol-2(3H)-ylidene)benzamide]"
100 to 1000,100 to 1000,"O=C(/N=c1\[nH]c2cc(N3CCOCC3=O)ccc2n1CCCO)c1ccccc1 [Compound 30, (E)-N-(1-(3-hydroxypropyl)-5-(3-oxomorpholino)-1H-benzo[d]imidazol-2(3H)-ylidene)benzamide]"
100 to 1000,≤ 100,"O=C(/N=c1\[nH]c2cc(N3CCOCC3=O)ccc2n1[C@H]1CC[C@H](O)CC1)c1cccc(C(F)(F)F)c1 [Compound 32, trans-(E)-N-(1-(4-hydroxycyclohexyl)-5-(3-oxomorpholino)-1H-benzo[d]imidazol-2(3H)-ylidene)-3-(trifluoromethyl)benzamide]"
100 to 1000,≤ 100,"O=C(/N=c1\[nH]c2cc(N3CCOCC3=O)ccc2n1CCCO)c1cccc(F)c1 [Compound 35, (E)-3-fluoro-N-(1-(3-hydroxypropyl)-5-(3-oxomorpholino)-1H-benzo[d]imidazol-2(3H)-ylidene)benzamide]"
100 to 1000,> 1000,"O=C(/N=c1\[nH]c2cc(N3CCOCC3=O)ccc2n1CCCO)c1cccc(C(=O)N2CCOCC2)c1 [Compound 36, (E)-N-(1-(3-hydroxypropyl)-5-(3-oxomorpholino)-1H-benzo[d]imidazol-2(3H)-ylidene)-3-(morpholine-4-carbonyl)benzamide]"

# Further lines, the compound ahead of its results:
SMILES,IC50 [1] [nM],IC50 [2] [nM]
"C[C@@H](CCO)n1/c(=N/C(=O)c2cccc(C(F)F)c2)[nH]c2cc(N3CCOCC3=O)ccc21 [Compound 16, (S,E)-3-(difluoromethyl)-N-(1-(4-hydroxybutan-2-yl)-5-(3-oxomorpholino)-1H-benzo[d]imidazol-2(3H)-ylidene)benzamide]",100 to 1000,≤ 100
"N#Cc1cccc(C(=O)/N=c2\[nH]c3cc(N4CCOCC4=O)ccc3n2CCCCO)c1 [Compound 18, (E)-3-cyano-N-(1-(4-hydroxybutyl)-5-(3-oxomorpholino)-1H-benzo[d]imidazol-2(3H)-ylidene)benzamide]",100 to 1000,≤ 100
"CS(=O)(=O)c1cccc(C(=O)/N=c2\[nH]c3cc(N4CCOCC4=O)ccc3n2CCCCO)c1 [Compound 19, (E)-N-(1-(4-hydroxybutyl)-5-(3-oxomorpholino)-1H-benzo[d]imidazol-2(3H)-ylidene)-3-(methylsulfonyl)benzamide]",100 to 1000,≤ 100
"O=C(/N=c1\[nH]c2cc(N3CCOCC3=O)ccc2n1CCCO)c1cccc(CO)c1 [Compound 21, (E)-3-(hydroxymethyl)-N-(1-(3-hydroxypropyl)-5-(3-oxomorpholino)-1H-benzo[d]imidazol-2(3H)-ylidene)benzamide]",100 to 1000,≤ 100
"O=C(/N=c1\[nH]c2cc(N3CCOCC3=O)ccc2n1CCCO)c1ccc2c(c1)COC2=O [Compound 23, (E)-N-(1-(3-hydroxypropyl)-5-(3-oxomorpholino)-1H-benzo[d]imidazol-2(3H)-ylidene)-1-oxo-1,3-dihydroisobenzofuran-5-carboxamide]",> 1000,≤ 100
"C[C@H](CCO)n1/c(=N/C(=O)c2cccc(S(C)(=O)=O)c2)[nH]c2cc(N3CCOCC3=O)ccc21 [Compound 24, (R,E)-N-(1-(4-hydroxybutan-2-yl)-5-(3-oxomorpholino)-1H-benzo[d]imidazol-2(3H)-ylidene)-3-(methylsulfonyl)benzamide]",100 to 1000,≤ 100
"N#Cc1cccc(C(=O)/N=c2\[nH]c3cc(N4CCOCC4=O)ccc3n2[C@H]2CC[C@H](O)CC2)c1 [Compound 27, trans-(E)-3-cyano-N-(1-(4-hydroxycyclohexyl)-5-(3-oxomorpholino)-1H-benzo[d]imidazol-2(3H)-ylidene)benzamide]",≤ 100,≤ 100
"O=C(/N=c1\[nH]c2cc(N3CCOCC3=O)ccc2n1[C@H]1CC[C@H](O)CC1)c1cccc(C(F)F)c1 [Compound 28, trans-(E)-3-(difluoromethyl)-N-(1-(4-hydroxycyclohexyl)-5-(3-oxomorpholino)-1H-benzo[d]imidazol-2(3H)-ylidene)benzamide]",≤ 100,≤ 100
"O=C(/N=c1\[nH]c2cc(N3CCCOC3=O)ccc2n1CCCO)c1cccc(C(F)F)c1 [Compound 29, (E)-3-(difluoromethyl)-N-(1-(3-hydroxypropyl)-5-(2-oxo-1,3-oxazinan-3-yl)-1H-benzo[d]imidazol-2(3H)-ylidene)benzamide]",≤ 100,≤ 100
"CS(=O)(=O)c1cccc(C(=O)/N=c2\[nH]c3cc(N4CCOCC4=O)ccc3n2[C@H]2CC[C@H](O)CC2)c1 [Compound 31, trans-(E)-N-(1-(4-hydroxycyclohexyl)-5-(3-oxomorpholino)-1H-benzo[d]imidazol-2(3H)-ylidene)-3-(methylsulfonyl)benzamide]",≤ 100,≤ 100
"O=C(/N=c1\[nH]c2cc(N3CCCOC3=O)ccc2n1CCCO)c1cccc(C(F)(F)F)c1 [Compound 33, (E)-N-(1-(3-hydroxypropyl)-5-(2-oxo-1,3-oxazinan-3-yl)-1H-benzo[d]imidazol-2(3H)-ylidene)-3-(trifluoromethyl)benzamide]",≤ 100,≤ 100
"NC(=O)/C=C/c1cccc(C(=O)/N=c2\[nH]c3cc(N4CCOCC4=O)ccc3n2CCCO)c1 [Compound 34, (E)-3-((E)-3-amino-3-oxoprop-1-en-1-yl)-N-(1-(3-hydroxypropyl)-5-(3-oxomorpholino)-1H-benzo[d]imidazol-2(3H)-ylidene)benzamide]",≤ 100,≤ 100

# From patent US10059701B2 (Merck Patent GmbH, priority 2015, dated 2018)
